Reference: patent US12331068B2, “Compositions and methods for inhibiting CD73” (Peloton Therapeutics, Inc., priority 2018, dated 2025)
Like-named read-outs stand apart in the source and are kept apart here.

Key:
[1] = biological target: T1, CD73 on U138 human neuroglioma cells (Homo sapiens, UniProt P21589); assay: CD73 Cell-Based Assay (inorganic phosphate from AMP, malachite green); conditions: AMP substrate, 2 hours at 37° C., read-out: CD73 Cell-Based assay IC50
T1 construct: U138 cells were obtained from ATCC and cultured in DMEM with 10% FBS; host or cells: U138 human neuroglioma cells
T1 sequence (P21589 27-549): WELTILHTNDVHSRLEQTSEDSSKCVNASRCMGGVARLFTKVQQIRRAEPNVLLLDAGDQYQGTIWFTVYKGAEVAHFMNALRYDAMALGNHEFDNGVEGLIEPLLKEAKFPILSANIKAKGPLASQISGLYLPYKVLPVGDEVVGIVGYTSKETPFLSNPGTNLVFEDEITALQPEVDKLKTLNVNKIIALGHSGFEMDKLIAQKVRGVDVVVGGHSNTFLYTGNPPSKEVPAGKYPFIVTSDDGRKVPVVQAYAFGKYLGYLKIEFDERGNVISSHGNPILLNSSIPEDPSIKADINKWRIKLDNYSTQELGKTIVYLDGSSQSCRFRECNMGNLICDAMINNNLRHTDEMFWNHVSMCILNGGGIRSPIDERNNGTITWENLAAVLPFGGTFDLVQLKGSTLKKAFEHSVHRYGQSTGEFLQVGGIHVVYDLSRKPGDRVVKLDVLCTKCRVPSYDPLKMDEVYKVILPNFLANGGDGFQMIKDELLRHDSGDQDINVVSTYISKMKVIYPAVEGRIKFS
Experimental: U138 human neuroglioma cells were used in these experiments. U138 cells were obtained from ATCC and cultured in DMEM with 10% FBS. 2500 cells were seeded into 96-well plate with 100 μL of media the day before the experiment. […] After washing, 100 μL of buffer was added to each well, then 100 μL of a mixture of AMP substrate (200 μM) and diluted compound was added to each well. The cells were incubated at 37° C. (with 5% CO2) for 2 hours. 50 μL of supernatant was transferred to a 96-well assay plate and the concentration of inorganic phosphate was determined using malachite green reagent (R&D System; Cat: DY996).

Human CD73 = biological target: T2, Human CD73 (Homo sapiens, UniProt P21589); assay: CD73 Enzyme Assay (EnzChek PNP/MESG kinetic readout of AMP hydrolysis); format: biochemical
T2 construct: purchased R&D Systems; host or cells: CHO cells
T2 sequence (P21589 27-549): T1 sequence (P21589 27-549)
Experimental: A compound of the present disclosure (5 μL) was transferred to a 384-well assay plate. The compound was added in a 15 point, 3-fold serial dilution (300 μM to 0.0002 μM) in DMSO. […] The plate was immediately placed in a plate reader (Synergy 2 or Spark 10), and a reading was taken every minute for 10 to 20 minutes in a kinetic run at 360 nm. The linear portion of the curve was used to determine the observed rate (initial velocity). Low signal controls containing 100 μM adenosine 5′-(α,β-methylene) diphosphate and high signal controls containing no compound were measured for each plate.
IC50 values were calculated using Dotmatics template equation for 4-parameter fit. Results are expressed as % inhibition using the following equation: […]

[2] = 0.25 nM hCD73, 25 μM AMP, read-out: CD73 Enzyme Assay IC50

Compound | IC50 [1] [nM] | IC50 (Human CD73; [2]) [nM] | IC50 (Human CD73) [nM] | IC50 (Human CD73; low signal control compound, 0.25 nM hCD73, 25 μM AMP, read-out: IC50) [nM]
C[C@@H](Nc1c(C#N)c(Cl)nc2c1ncn2[C@@H]1O[C@H](COP(=O)(O)CP(=O)(O)O)[C@@H](O)[C@H]1O)c1ccc(F)cc1 [Compound 214] | < 10 |  | < 10 | 
N#Cc1c(OCCO)nc2c(ccn2[C@@H]2O[C@H](COCP(=O)(O)O)[C@@H](O)[C@H]2O)c1NC1CCCC1 [Compound 2] |  | 10 to 100 |  | 
C[C@H](Nc1c(C#N)c(Cl)nc2c1cnn2[C@@H]1O[C@H](CS(=O)(=O)CP(=O)(O)O)[C@@H](O)[C@H]1O)c1ccc(C#N)cc1 [Compound 185] | < 10 | < 10 |  | 
N#Cc1c(Cl)nc2c(ccn2[C@@H]2O[C@H](COCP(=O)(O)O)[C@@H](O)[C@H]2O)c1NC1CCC1 [Compound 9] | < 10 | < 10 |  | 
NC(=O)c1c(Cl)nc2c(ccn2C2O[C@H](COCP(=O)(O)O)[C@@H](O)[C@H]2O)c1NC1CCCC1 (some centres unmarked) [Compound 39] | 10 to 100 | < 10 |  | 
N#Cc1c(Cl)nc2c(ccn2[C@@H]2O[C@H](COP(=O)(O)CP(=O)(O)O)[C@@H](O)[C@H]2O)c1NC1CC(F)(F)C1 [Compound 47] | < 10 | < 10 |  | 
C[C@@H](Nc1c(C#N)c(Cl)nc2c1cnn2[C@@H]1O[C@H](COP(=O)(O)CP(=O)(O)O)[C@@H](O)[C@H]1O)c1ccc(F)cc1 [Compound 270] |  | < 10 |  | 
CNC(=O)c1c(Cl)nc2c(ccn2C2O[C@H](COCP(=O)(O)O)[C@@H](O)[C@H]2O)c1NC1CCCC1 (some centres unmarked) [Compound 40] |  | 10 to 100 |  | 
N#Cc1c(Cl)nc2c(ncn2[C@@H]2O[C@H](COCP(=O)(O)O)[C@@H](O)[C@@H]2F)c1N1CCC(F)(F)C1 [Compound 100] |  | 10 to 100 |  | 
N#Cc1c(OCCO)nc2c(ccn2[C@@H]2O[C@H](COCP(=O)(O)O)[C@@H](O)[C@H]2O)c1N1CC2CCCC2C1 (some centres unmarked) [Compound 52] |  | > 100 |  | 
C[C@H](Nc1c(C#N)c(Cl)nc2c1cnn2[C@@H]1O[C@H](COP(=O)(O)CP(=O)(O)O)[C@@H](O)[C@H]1O)c1ccc(F)cn1 [Compound 271] |  | < 10 |  | 
C[C@@H](Nc1c(C#N)c(Cl)nc2c1cnn2[C@@H]1O[C@H](COP(=O)(O)CP(=O)(O)O)[C@@H](O)[C@H]1O)c1ccc(F)cn1 [Compound 258] |  | < 10 |  | 
N#Cc1c(Cl)nc2c(cnn2[C@@H]2O[C@H](COCP(=O)(O)O)[C@@H](O)[C@@H]2F)c1N1CCC(F)(F)C1 [Compound 99, ((((2R,3R,4S,5R)-5-(6-chloro-5-cyano-4-(3,3-difluoropyrrolidin-1-yl)-1H-pyrazolo[3,4-b]pyridin-1-yl)-4-fluoro-3-hydroxytetrahydrofuran-2-yl)methoxy)methyl)phosphonic acid] |  | > 100 |  | 
C[C@H](Nc1c(C#N)c(Cl)nc2c1cnn2[C@@H]1O[C@H](COP(=O)(O)CP(=O)(O)O)[C@@H](O)[C@H]1O)c1ccccc1F [Compound 260] |  | < 10 |  | 
N#Cc1c(Cl)nc2c(ccn2[C@@H]2O[C@H](COCP(=O)(O)O)[C@@H](O)[C@@H]2F)c1N1CCC(F)(F)C1 [Compound 98] |  | 10 to 100 |  | 
Nc1ncnc2c1ncn2[C@@H]1O[C@H](COP(=O)(O)CP(=O)(O)O)[C@@H](O)[C@H]1O [adenosine 5′-(α,β-methylene) diphosphate, reference compound] |  |  |  | 50
N#Cc1nc2c(ccn2[C@@H]2O[C@H](CS(=O)(=O)CP(=O)(O)O)[C@@H](O)[C@@H]2F)c(N)c1C#N [Compound 189] |  | > 100 |  | 

Now from value to molecule, other results behind:

IC50 [1] [nM] | IC50 (Human CD73; [2]) [nM] | Compound | IC50 (Human CD73) [nM] | IC50 (Human CD73; low signal control compound, 0.25 nM hCD73, 25 μM AMP, read-out: IC50) [nM]
< 10 | < 10 | C[C@@H](Nc1c(C#N)c(Cl)nc2c1ccn2[C@@H]1O[C@H](COCP(=O)(O)O)[C@@H](O)[C@H]1O)c1ccc(F)cc1 [Compound 7] |  | 
< 10 | < 10 | N#Cc1c(Cl)nc2c(c(F)cn2[C@@H]2O[C@H](CS(=O)(=O)CP(=O)(O)O)[C@@H](O)[C@H]2O)c1NC1CC(F)(F)C1 [Compound 162] |  | 
< 10 | < 10 | N#Cc1c(Cl)nc2c(cnn2[C@@H]2O[C@H](CS(=O)(=O)CP(=O)(O)O)[C@@H](O)[C@H]2O)c1NC1CCC(F)(F)CC1 [Compound 130] |  | 
< 10 | < 10 | C[C@H](Nc1c(C#N)c(Cl)nc2c1ccn2[C@@H]1O[C@H](COP(=O)(O)CP(=O)(O)O)[C@@H](O)[C@@H]1F)c1ccc(F)cc1 [Compound 241] |  | 
< 10 | < 10 | C[C@H](Nc1c(C#N)c(Cl)nc2c1ncn2[C@@H]1O[C@H](COP(=O)(O)CP(=O)(O)O)[C@@H](O)[C@@H]1F)c1ccc(F)cc1 [Compound 245] |  | 
< 10 | < 10 | N#Cc1c(Cl)nc2c(ccn2[C@@H]2O[C@H](CS(=O)(=O)CP(=O)(O)O)[C@@H](O)[C@@H]2F)c1NC1CCCC1 [Compound 170] |  | 
< 10 | < 10 | N#Cc1c(Cl)nc2c(cnn2[C@@H]2O[C@H](COCP(=O)(O)O)[C@@H](O)[C@H]2O)c1N1CCC(F)(F)C1 [Compound 62, ((((2R,3S,4R,5R)-5-(6-chloro-5-cyano-4-(3,3-difluoropyrrolidin-1-yl)-1H-pyrazolo[3,4-b]pyridin-1-yl)-3,4-dihydroxytetrahydrofuran-2-yl)methoxy)methyl)phosphonic acid] |  | 
< 10 | < 10 | N#Cc1c(Cl)nc2c(ccn2[C@@H]2O[C@H](COP(=O)(O)CP(=O)(O)O)[C@@H](O)[C@@H]2F)c1NC1CC(F)(F)C1 [Compound 228] |  | 
< 10 | < 10 | C[C@H](Nc1c(C#N)c(Cl)nc2c1cnn2[C@@H]1O[C@H](CS(=O)(=O)CP(=O)(O)O)[C@@H](O)[C@H]1O)c1cccc(C#N)c1 [Compound 200] |  | 
< 10 | < 10 | N#Cc1c(Cl)nc2c(cnn2[C@@H]2O[C@H](CS(=O)(=O)CP(=O)(O)O)[C@@H](O)[C@H]2O)c1N[C@H]1C[C@H](F)C1 [Compound 144, (((((2S,3S,4R,5R)-5-(6-chloro-5-cyano-4-(((1r,3R)-3-fluorocyclobutyl)amino)-1H-pyrazolo[3,4-b]pyridin-1-yl)-3,4-dihydroxytetrahydrofuran-2-yl)methyl)sulfonyl)methyl)phosphonic acid] |  | 
< 10 | < 10 | C[C@@H](Nc1c(C#N)c(Cl)nc2c1cnn2[C@@H]1O[C@H](CS(=O)(=O)CP(=O)(O)O)[C@@H](O)[C@H]1O)c1cccc(F)c1 [Compound 182] |  | 
< 10 | < 10 | C[C@@H](Nc1c(C#N)c(Cl)nc2c1ncn2[C@@H]1O[C@H](COP(=O)(O)CP(=O)(O)O)[C@@H](O)[C@H]1O)c1ccc(C#N)cc1 [Compound 226] |  | 
< 10 | < 10 | N#Cc1c(Cl)nc2c(ncn2[C@@H]2O[C@H](COCP(=O)(O)O)[C@@H](O)[C@H]2O)c1NC1CCCC1 [Compound 55, ((((2R,3S,4R,5R)-5-(5-chloro-6-cyano-7-(cyclopentylamino)-3H-imidazo[4,5-b]pyridin-3-yl)-3,4-dihydroxytetrahydrofuran-2-yl)methoxy)methyl)phosphonic acid] |  | 
< 10 | < 10 | C[C@H](Nc1c(C#N)c(Cl)nc2c1cnn2[C@@H]1O[C@H](COP(=O)(O)CP(=O)(O)O)[C@@H](O)[C@H]1O)c1ccc(C#N)cc1 [Compound 243] |  | 
< 10 | < 10 | C[C@H](Nc1c(C#N)c(Cl)nc2c1ccn2[C@@H]1O[C@H](COP(=O)(O)CP(=O)(O)O)[C@@H](O)[C@H]1O)c1ccc(F)cc1 [Compound 35] |  | 
< 10 | < 10 | N#Cc1c(Cl)nc2c(ccn2[C@@H]2O[C@H](COC(CO)P(=O)(O)O)[C@@H](O)[C@H]2O)c1N1CC2CCCC2C1 (some centres unmarked) [Compound 51] |  | 
< 10 | < 10 | C[C@H](Nc1c(C#N)c(Cl)nc2c1ccn2[C@@H]1O[C@H](COP(=O)(O)CP(=O)(O)O)[C@@H](O)[C@H]1O)c1ccc(F)cn1 [Compound 212] |  | 
< 10 | < 10 | N#Cc1c(Cl)nc2c(ccn2[C@@H]2O[C@H](COP(=O)(O)CP(=O)(O)O)[C@@H](O)[C@@H]2F)c1N1CCC(F)(F)C1 [Compound 96] |  | 
< 10 | < 10 | N#Cc1c(Cl)nc2c(cnn2[C@@H]2O[C@H](COP(=O)(O)CP(=O)(O)O)[C@@H](O)[C@H]2O)c1N[C@H]1C[C@@H](F)C1 [Compound 321] |  | 
< 10 | < 10 | N#Cc1c(Cl)nc2c(cnn2[C@@H]2O[C@H](COP(=O)(O)CP(=O)(O)O)[C@@H](O)[C@H]2O)c1N1CC2CC2C1 (some centres unmarked) [Compound 72] |  | 
